Assay results reported in patent US9611230B2, “1,3,4-oxadiazole benzoic acid compounds and their use for nonsense suppression and the treatment of disease” (PTC Therapeutics, Inc., priority 2004, dated 2017).
Several values for one entry are separate records, joined by “and”; a condition that tells them apart may be missing. Identical values can stand only once.

Test system: full-length luciferase protein produced by suppression of the premature termination codon
Test: Western blot of full-length luciferase after immunoprecipitation (epitope-tagged nonsense constructs)
Format: cell-based, Human
Details: printed in the UAAA column of Table 3
Description: The nonsense suppression activity in an assay as described above is shown in the Table 3 below, for a construct with a UAG nonsense mutation at position 190, followed by an adenine nucleotide in-frame, (UAGA); and a construct with a UAA nonsense mutation at position 190, followed by an adenine nucleotide in-frame, (UAAA).
Another assay of the present invention can evaluate compounds that promote nonsense mutation suppression. The luciferase constructs described above in FIG. 1 are engineered to harbor two epitope tags in the N-terminus of the luciferase protein. Based on luciferase protein production, these constructs qualitatively assess the level of translation-readthrough. The presence of the full-length luciferase protein produced by suppression of the premature termination codon is measured by immunoprecipitation of the suppressed luciferase protein (using an antibody against a His tag) followed by western blotting using an antibody against the second epitope (the Xpress™ epitope; Invitrogen®; Carlsbad, Calif.). These constructs are depicted in FIG. 2.
Cells that harbor the constructs of FIG. 2 show increased full-length protein production when treated with a compound of the present invention. After treatment for 20 hours, cells containing the constructs of FIG. 2 are collected and an antibody recognizing the His epitope is used to immunoprecipitate the luciferase protein. Following immunoprecipitation, western blotting is performed using the antibody to the Xpress™ epitope (Invitrogen®; Carlsbad, Calif.) to detect the truncated luciferase (produced when no nonsense suppression occurs) and to detect the full-length protein (produced by suppression of the nonsense codon). Treatment of cells with a test compound produces full-length protein and not a readthrough protein (See e.g. FIG. 3). The readthrough protein is produced if suppression of the normal termination codon occurs. Compounds of the present invention suppress the premature, i.e. nonsense mutation, but not the normal termination codon in the luciferase mRNA.

| Compound | western blot signal (POS WB) |
| --- | --- |
| CCOc1ccc(-c2cnc(-c3cccc(C(=O)O)c3)o2)cc1 [Compound 595] | POSWB |
| O=C(O)c1cccc(-c2cc(-c3ccc(Cl)cc3)on2)c1 [Compound No. 479, 3-[5-(4-chlorophenyl)isoxazol-3-yl]benzoic acid] | POSWB |
| O=C(O)c1ccc(-c2ncc(-c3ccc(F)cc3F)o2)cc1 [Compound No. 548, 4-[5-(2,4-difluorophenyl)oxazol-2-yl]benzoic acid] | POSWB |

Test system: not given
Test: not given
Details: not given

| Compound | melting point |
| --- | --- |
| CCOc1ccc(-c2cnc(-c3cccc(C(=O)O)c3)o2)cc1 [Compound 595] | 223 to 224 °C |
| CC(C)c1ccc(-c2cnc(-c3ccc(C(=O)O)cc3)o2)cc1 [Compound 635] | 233 to 234 °C |
| CC(C)(C)c1ccc(-c2cnc(-c3ccc(C(=O)O)cc3)o2)cc1 [Compound 636] | 258 to 259 °C |
| COc1ccc(-c2cnc(-c3ccc(C(=O)O)cc3)o2)cc1 [Compound 637] | 249 to 251 °C |
| CCOc1ccc(-c2cnc(-c3ccc(C(=O)O)cc3)o2)cc1 [Compound 638] | 245 to 246 °C |
| O=C(O)c1ccc(-c2ncc(-c3ccc(Cl)cc3)o2)cc1 [Compound 639] | 260 to 263 °C |
| O=C(O)c1ccc(-c2ncc(-c3ccc(F)c(F)c3)o2)cc1 [Compound 640] | 291 to 292 °C |
| O=C(O)c1ccc(-c2ncc(-c3cc(F)cc(F)c3)o2)cc1 [Compound 641] | 273 to 274 °C |
| O=C(O)c1ccc(-c2ncc(-c3ccc(Br)cc3)o2)cc1 [Compound 642] | 259 to 261 °C |
| Cc1ccccc1-c1cnc(-c2ccc(C(=O)O)cc2)o1 [Compound 643] | 284 to 286 °C |
| CC(C)c1cccc(-c2cnc(-c3ccc(C(=O)O)cc3)o2)c1 [Compound 644] | 236 to 237 °C |
| COc1ccccc1-c1cnc(-c2ccc(C(=O)O)cc2)o1 [Compound 645] | 305 to 306 °C |
| O=C(O)c1ccc(-c2ncc(-c3cccc(OCc4ccccc4)c3)o2)cc1 [Compound 646] | 210 to 211 °C |
| O=C(O)c1ccc(-c2ncc(-c3ccc(Oc4ccccc4)cc3)o2)cc1 [Compound 647] | 220 to 222 °C |
| O=C(O)c1ccc(-c2ncc(-c3cccc(O)c3)o2)cc1 [Compound 648] | 291 to 292 °C |
| O=C(O)c1ccc(-c2ncc(-c3ccc(F)c(Cl)c3)o2)cc1 [Compound 649] | 295 to 297 °C |
| O=C(O)Cc1ccc(-c2ncc(-c3ccc(F)cc3F)o2)cc1 [Compound 650] | 191 to 193 °C |
| O=C(O)c1ccc(-c2ncc(C#Cc3ccccc3)o2)cc1 [Compound 651] | 251 to 253 °C |
| CC(C)c1ccc(NC(=O)Nc2cccc(-c3nnc(-c4ccc(C(=O)O)cc4)o3)c2)cc1 [Compound No. 60, 4-(5-{3-[3-(4-isopropylphenyl)ureido]phenyl}-[1,3,4]oxadiazol-2-yl)benzoic acid] | > 270 °C |
| O=C(O)c1cccc(-c2nnc(-c3ccc(N4CCOCC4)cc3)o2)c1 [Compound No. 82, 3-[5-(4-morpholin-4-yl-phenyl)-[1,3,4]oxadiazol-2-yl]benzoic acid] | 235 to 237 °C |
| CC(C)c1ccc(-c2noc(-c3ccc(C(=O)O)cc3)n2)cc1 [Compound No. 140, 4-[3-(4-isopropylphenyl)-1,2,4-oxadiazol-5-yl]benzoic acid] | 253 to 255 °C |
| CC(C)c1ccc(-c2nc(-c3ccc(C(=O)O)cc3)no2)cc1 [Compound No. 275, 4-[5-(4-isopropylphenyl)-[1,2,4]oxadiazol-3-yl]benzoic acid] | 210 to 213 °C |
| CC(C)c1ccc(-c2cnc(-c3cccc(C(=O)O)c3)[nH]2)cc1 [Compound No. 277, 3-[5-(4-isopropylphenyl)-1H-imidazol-2-yl]benzoic acid] | 296 to 298 °C |

Results, then the compound that gave them:

| melting point | Compound |
| --- | --- |
| 240 to 242 °C | Cc1cccc(-c2ccc(-c3nnc(-c4cccc(C(=O)O)c4)o3)cc2)c1 [Compound No. 281, 3-[5-(3′-methylbiphenyl-4-yl)-[1,3,4]oxadiazol-2-yl]benzoic acid] |
| 150 to 153 °C | CC(C)c1ccc(-c2cnc(-c3cccc(C(=O)O)c3)o2)cc1 [Compound No. 288, 3-[5-(4-isopropylphenyl)-oxazol-2-yl]benzoic acid] |
| 206 to 208 °C | CC(C)c1ccc(-c2csc(-c3cccc(C(=O)O)c3)n2)cc1 [Compound No. 289, 3-[4-(4-isopropylphenyl)thiazol-2-yl]-benzoic acid] |
| 218 to 220 °C | CC(C)c1ccc(-c2cnc(-c3cccc(C(=O)O)c3)s2)cc1 [Compound No. 310, 3-[5-(4-Isopropyl-phenyl)thiazol-2-yl]benzoic acid] |
| 283 to 285 °C | CC(C)c1ccc(-c2ncc(-c3cccc(C(=O)O)c3)[nH]2)cc1 [Compound No. 311, 3-[2-(4-isopropylphenyl)-3H-imidazol-4-yl]benzoic acid] |
| 193 to 195 °C | CC(C)c1ccc(-c2nc(-c3cccc(C(=O)O)c3)cs2)cc1 [Compound No. 312, 3-[2-(4-isopropylphenyl)thiazol-4-yl]-benzoic acid] |
| 236 to 239 °C | CC(C)c1ccc(-c2nc(-c3cccc(C(=O)O)c3)co2)cc1 [Compound No. 313, 3-[2-(4-isopropylphenyl)-oxazol-4-yl]benzoic acid] |
| 236 to 239 °C | CC(C)c1ccc(-c2coc(-c3cccc(C(=O)O)c3)c2C(=O)O)cc1 [Compound No. 314, 2-(3-carboxyphenyl)-4-(4-isopropylphenyl)furan-3-carboxylic acid] |
| 193 to 195 °C | CC(C)c1ccc(-c2ncc(-c3cccc(C(=O)O)c3)o2)cc1 [Compound No. 320, 3-[2-(4-isopropylphenyl)-oxazol-5-yl]-benzoic acid] |
| 237 to 239 °C | CC(C)c1ccc(-c2ncc(-c3cccc(C(=O)O)c3)s2)cc1 [Compound No. 321, 3-[2-(4-isopropylphenyl)thiazol-5-yl]benzoic acid] |
| 172 to 176 °C | CC(C)c1ccc(-c2ccc(-c3cccc(C(=O)O)c3)o2)cc1 [Compound No. 322, 3-[5-(4-isopropylphenyl)furan-2-yl]benzoic acid] |
| 165 to 167 °C | CC(C)c1ccc(-c2nc(-c3cccc(C(=O)O)c3)ns2)cc1 [Compound No. 323, 3-[5-(4-isopropylphenyl)-[1,2,4]thiadiazol-3-yl]-benzoic acid] |
| > 300 °C | CC(C)c1ccc(-c2nnc(-c3ccc(C(=O)O)cc3)s2)cc1 [Compound No. 324, 4-[5-(4-isopropylphenyl)-[1,3,4]thiadiazol-2-yl]benzoic acid] |
| 166 to 168 °C | CC(C)c1ccc(-c2nsc(-c3cccc(C(=O)O)c3)n2)cc1 [Compound No. 326, 3-[3-(4-isopropylphenyl)-[1,2, 4]thiadiazol-5-yl]benzoic acid] |
| 220 to 222 °C | CC(C)c1ccc(-c2csc(-c3cccc(C(=O)O)c3)c2)cc1 [Compound No. 327, 3-[4-(4-isopropylphenyl)-thiophen-2-yl]-benzoic acid] |
| 208 to 209 °C | CC(C)c1ccc(-c2cc(-c3cccc(C(=O)O)c3)cs2)cc1 [Compound No. 348, 3-[5-(4-isopropylphenyl)thiophen-3-yl]benzoic acid] |
| 233 to 235 °C | CC(C)c1ccc(-c2ccc(-c3cccc(C(=O)O)c3)s2)cc1 [Compound No. 400, 3-[5-(4-isopropylphenyl)thiophen-2-yl]benzoic acid] |
| 287 to 289 °C | COc1ccc(-c2n[nH]c(-c3cccc(C(=O)O)c3)n2)cc1 [Compound No. 424, 3-[5-(4-methoxy-phenyl)-2H-[1,2,4]triazol-3-yl]-benzoic acid] |
| 293 to 295 °C | O=C(O)c1cccc(-c2cc(-c3ccc(Cl)cc3)on2)c1 [Compound No. 479, 3-[5-(4-chlorophenyl)isoxazol-3-yl]benzoic acid] |
| 265 to 266 °C | O=C(O)c1cccc(-c2cc(-c3ccc(Cl)cc3)no2)c1 [Compound No. 503, 3-[3-(4-chlorophenyl)isoxazol-5-yl]benzoic acid] |
| 233 to 234 °C | O=C(O)c1cccc(-c2nc(-c3ccccc3F)no2)c1 [Compound No. 506, 3-[3-(2-fluorophenyl)-[1,2,4]oxadiazole-5-yl] benzoic acid] |
| 298 to 299 °C and 301 to 302 °C | O=C(O)c1ccc(-c2ncc(-c3ccc(F)cc3F)o2)cc1 [Compound No. 548, 4-[5-(2,4-difluorophenyl)oxazol-2-yl]benzoic acid] |
| 270.5 to 272 °C | O=C(O)c1cccc(-c2cc(-c3ccc(F)cc3)[nH]n2)c1 [Compound No. 552, 3-[5-(4-fluorophenyl)-1H-pyrazol-3-yl]benzoic acid] |
